Assays:
[1] = biological target: T1, PIN2 (Arabidopsis thaliana, UniProt Q9LU77); assay: whole-cell patch clamp, block of currents; format: cell-based; conditions: inhibition; NPPB in bath; auxin-stimulated conditions; 50 mM CsCl
T1 sequence (Q9LU77 1-647): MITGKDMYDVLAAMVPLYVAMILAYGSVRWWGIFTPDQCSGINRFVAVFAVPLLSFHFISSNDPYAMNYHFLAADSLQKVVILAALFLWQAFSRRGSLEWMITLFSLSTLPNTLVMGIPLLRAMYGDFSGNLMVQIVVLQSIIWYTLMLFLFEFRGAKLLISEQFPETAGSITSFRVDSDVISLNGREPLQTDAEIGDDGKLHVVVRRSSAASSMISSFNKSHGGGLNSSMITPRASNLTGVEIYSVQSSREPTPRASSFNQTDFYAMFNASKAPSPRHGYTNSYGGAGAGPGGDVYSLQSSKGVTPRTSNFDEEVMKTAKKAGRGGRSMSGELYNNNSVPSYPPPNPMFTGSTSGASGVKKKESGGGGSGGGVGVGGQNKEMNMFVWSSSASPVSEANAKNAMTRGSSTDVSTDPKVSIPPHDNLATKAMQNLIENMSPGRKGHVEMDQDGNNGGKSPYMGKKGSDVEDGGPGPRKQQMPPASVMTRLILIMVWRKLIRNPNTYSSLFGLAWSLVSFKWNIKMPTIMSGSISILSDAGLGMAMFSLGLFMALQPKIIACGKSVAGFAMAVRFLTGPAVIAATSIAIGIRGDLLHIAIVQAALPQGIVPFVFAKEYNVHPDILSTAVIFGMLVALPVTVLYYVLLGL

[2] = biological target: T2, ABCB4 (Arabidopsis thaliana, UniProt O80725); assay: whole-cell patch clamp, current magnitude; format: cell-based; conditions: activation; IAA in pipette (cytoplasmic side); 50 mM CsCl
T2 sequence (O80725 1-1286): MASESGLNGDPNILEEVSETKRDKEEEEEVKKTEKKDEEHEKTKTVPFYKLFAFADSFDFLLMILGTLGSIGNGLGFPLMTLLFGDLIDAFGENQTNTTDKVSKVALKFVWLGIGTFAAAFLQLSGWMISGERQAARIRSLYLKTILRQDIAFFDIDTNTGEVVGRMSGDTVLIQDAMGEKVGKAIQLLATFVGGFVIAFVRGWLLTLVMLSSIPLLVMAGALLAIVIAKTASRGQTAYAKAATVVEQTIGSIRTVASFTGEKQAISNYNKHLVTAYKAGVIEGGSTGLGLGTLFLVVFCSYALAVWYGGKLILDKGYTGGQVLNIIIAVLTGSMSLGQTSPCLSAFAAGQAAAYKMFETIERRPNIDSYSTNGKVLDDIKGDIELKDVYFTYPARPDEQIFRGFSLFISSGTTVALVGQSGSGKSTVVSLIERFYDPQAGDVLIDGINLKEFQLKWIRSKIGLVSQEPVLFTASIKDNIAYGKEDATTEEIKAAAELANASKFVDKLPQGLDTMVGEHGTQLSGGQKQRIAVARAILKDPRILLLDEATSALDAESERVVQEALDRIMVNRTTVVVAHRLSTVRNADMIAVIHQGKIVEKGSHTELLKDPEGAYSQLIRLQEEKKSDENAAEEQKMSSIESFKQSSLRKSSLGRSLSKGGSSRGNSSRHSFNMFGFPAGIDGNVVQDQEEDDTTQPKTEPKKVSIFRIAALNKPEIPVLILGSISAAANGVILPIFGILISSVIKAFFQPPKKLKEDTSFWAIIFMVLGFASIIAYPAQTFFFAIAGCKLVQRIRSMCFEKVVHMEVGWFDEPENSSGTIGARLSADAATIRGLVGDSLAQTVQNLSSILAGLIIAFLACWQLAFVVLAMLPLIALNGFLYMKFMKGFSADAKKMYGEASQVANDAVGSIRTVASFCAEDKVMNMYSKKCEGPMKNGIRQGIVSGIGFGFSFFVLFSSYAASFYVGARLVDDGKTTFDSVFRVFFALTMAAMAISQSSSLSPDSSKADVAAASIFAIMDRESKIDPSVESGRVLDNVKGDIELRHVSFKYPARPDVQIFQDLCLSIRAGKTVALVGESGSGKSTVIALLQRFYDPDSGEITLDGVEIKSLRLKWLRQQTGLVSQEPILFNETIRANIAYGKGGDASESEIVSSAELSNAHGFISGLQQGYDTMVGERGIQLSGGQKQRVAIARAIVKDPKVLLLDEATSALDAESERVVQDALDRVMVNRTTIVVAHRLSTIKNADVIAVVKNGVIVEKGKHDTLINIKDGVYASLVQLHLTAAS

SMILES | block at 20 μM [1] | % increase in currents, 0.1 to 1 μM IAA [2]
O=C(O)c1cc([N+](=O)[O-])ccc1NCCCc1ccccc1 [NPPB, 5‐nitro‐2‐(3‐phenylpropylamine)‐benzoic acid] | NPPB but not NPA was an effective inhibitor | –
O=C(O)Cc1c[nH]c2ccccc12 [IAA^−] | – | ~ 30%

Reference: paper PMC8595762 (Plant Direct, 2021)
